Literature values in patent publication US9622976B2, “Pharmaceutical composition” (LEK PHARMACEUTICALS D.D., priority 2006, dated 2017).

Conditions: pH 6.8 phosphate buffer

solubility: ≤ 2 μg per ml
Compound: CCCc1nc2c(C)cc(-c3nc4ccccc4n3C)cc2n1Cc1ccc(-c2ccccc2C(=O)O)cc1 [Telmisartan, 2-[4-[[4-methyl-6-(1-methylbenzoimidazol-2-yl)-2-propyl-benzoimidazol-1-yl]methyl]phenyl]benzoic acid]
